Patent US7402560B2, “NCAM binding compounds” (priority 1998, dated 2008)
Where a chain is given by its changes, count along the chain named. In names and notes the source's numbering stands. Entries after “also recorded” stand apart in the source; their conditions may differ. No end group written: not given here.

What was measured:
hippocampal neurons = experiment: Neurite outgrowth from hippocampal neurons, stereological total neurite length per cell (ProcessLength); details: for neurite outgrowth (total neurite length per cell): low density culture
[1] = test system: primary hippocampal neurones; experiment: Neurite outgrowth from single primary hippocampal neurones (length of longest neurite, image analysis); format: cell-based, rat; details: for neurite outgrowth: substrate of plastic or fibronectin, 21 h
Description: The system allows the examination of cell adhesion, cell migration and formation of processes in the treated cells leading to possibly neurite outgrowth. To investigate the latter further, neurite extension from single neurones may be studied. Cells are prepared as in the aggregation study and seeded on a substrate of plastic or fibronectin. The cells are then maintained for a suitable time, whereafter the neurite outgrowth is analysed by a measurement of the neurite extension, for example by a computer-assisted image analysis program. The mean length of the longest neurite of each cell was measured for neurites longer than 10 μM (see FIG. 2). In addition, the mean number of branchpoints per neurite and the mean number of neurites per cell were determined. NCAM Ig1-Ig2 ligands to be tested are added immediately before seeding the cells.
5000 cells/well, corresponding to approximately 4000 cells/cm^2, were seeded in 8 well LabTek Tissue Culture Chamber Slides with a growth surface of Permanox plastic (NUNC A/S, Denmark) or fibronectin (cocultures) and maintained for 20 h as described in Example 7 (1).
To investigate the stimulatory effect on neurite extension, cells were prepared as described and seeded on a substrate of plastic or fibronectin. Cells were then maintained for 21 h and neurite outgrowth was analysed by computer-assisted image analysis using the program Linelength. The mean length of the longest neurite of each cell was measured for neurites longer than 10 μM. In addition, the mean number of branchpoints per neurite and the mean number of neurites per cell were determined.

NCAM Ig1 domain = molecular target: T1, NCAM Ig1 domain (Rattus norvegicus, UniProt P13596); experiment: Plasmon surface resonance analysis of binding to NCAM Ig1; details: dendrimer peptides immobilised on sensor chip CM5, Ig1 in solution, 25° C.
T1 construct: encoding amino acids 1-97 of rat NCAM; made in house; host or cells: Pichia pastoris strain His 4 GS-115 (pHIL-S1 plasmid)
Description: Real-time biomolecular interaction analysis was performed using a BIAlite instrument (Pharmacia Biosensor AB, Sweden). […] Binding of Ig1 to dendrimer peptides: […] of Ig1 or Ig1I at the indicated concentrations were applied. The chip was regenerated by two […] pulses of 5 mM NaOH. Two independent experiments were performed.

hippocampal cells = experiment: Aggregate cultures of dissociated hippocampal cells (NCAM mediated cell adhesion); details: for aggregation of cells (number of cell aggregates): 24 h after seeding, higher number of aggregates reflects inhibition of aggregation; for inhibitory effect on aggregation of hippocampal cells: peptides at 180 μM (FIG. 19)
[2] = test system: primary hippocampal neurones on monolayers of fibroblasts; experiment: Neurite outgrowth in cocultures of neurones on fibroblast monolayers with or without NCAM-140; format: cell-based, rat; details: 0.54 or 5.4 μM
Description: For cocultures, neurones were seeded on monolayers of fibroblasts, either L-cells or 3T3 cells with or without NCAM-B expression. Neurones were visualised using immunohistochemical staining for growth associated protein 43 kD (GAP43). Briefly, cells were fixed 30 min in 4% paraformaldehyde in phosphate buffered saline (PBS). The primary antibody was rabbit anti-GAP43 1:100 in PBS with 1% fetal bovine serum(FBS), 0.1% bovine serum albumin (BSA), 50 mM glycine, 0.02% NaN3, 2% saponine 1 h at room temperature or overnight at 4° C. The second antibody was biotinylated swine-anti-rabbit immunoglobulins 1:100 in PBS with 1% BSA 1 h at room temperature. The third “layer” was streptavidine coupled to FITC or horse radish peroxidase (HRP) 1:100 1 h at room temperature. Between layers, washings were performed 3×20 min in PBS with 1% BSA. Images of living or stained neurones were captured and analysed by the image analysis program Line Length created at the Protein Laboratory. Putative axons were identified as the longest neurite of each cell. Only neurites longer than […] were considered.
The mean length of neurites on NCAM-expressing fibroblasts was longer than the mean length of neurites on fibroblasts without NCAM expression.

[3] = test system: primary hippocampal neurones; experiment: Cell proliferation by BrdU incorporation ELISA; format: cell-based
Description: (§1) Cell proliferation was determined by incorporation of 5-bromo-2′-deoxyuridin in a cell proliferation ELISA system (Amersham Life Science) according to the procedure of the manufacturer. Primary hippocampal neurones were seeded in microtiter plates at a density of 33000 cells per well. […] However, the net effect on proliferation depended on the growth status of cell. […] The net effect depends on the growth status of the cells but under the proper circumstances, a stimulation of proliferation will result.

neuroblastoma cells = experiment: Proliferation of neuroblastoma cells; format: cell-based
PC12 cells = experiment: Proliferation and neurite outgrowth of PC12 cells; format: cell-based, rat
Description: The effect of the ligands on proliferation and cell growth was also tested. […] After this initial promotion of proliferation, the peptides stimulate differentiation by increasing neurite outgrowth and at the same time suppressing proliferation. Thus the net effect on proliferation depends on the growth status of the cells. An effect on proliferation has been shown for primary cell cultures from the hippocampus cells and cultures of rat pheochromocytoma cell line PC12 cells. Accordingly, the ligands stimulate neurite outgrowth from and/or proliferation of NCAM presenting cells.
as §1

[4] = test system: primary hippocampal cells; experiment: Cell growth by Cristal Violet staining; format: cell-based; details: 0.8 μM, 48 h
Description: Cell growth is another way of monitoring proliferation of the cells. Primary hippocampal cells were seeded into 96 well microtiter culture plates (Nunc A/S) at a density of 20.000 or 40.000 per well in defined medium as described above. Cells were grown for 48 h, centrifuged in order to remove medium, fixed in 3.7% formaldehyde in PBS for 15 min and stained with 0.5% Cristal Violet in 20% methanol for 15 min. Stained cells were thoroughly washed with Milli Q purified water, thereafter residual dye was solubilised with 0.1 M sodium citrate in 50% ethanol pH 4.2 and absorbance measured at 550 nm.

NCAM (20-208) = molecular target: T2, NCAM (20-208) (Rattus norvegicus, UniProt P13596); experiment: Gel filtration chromatography of NCAM (20-208) dimer formation
T2 construct: made in house

Molecule: COc1ccc2c(c1)CC[C@@H]1[C@@H]2CC[C@]2(C)[C@@H](NCCCCCCN3C(=O)C=CC3=O)CC[C@@H]12 [U-73122, reference compound]
- effect on Ig2-peptide induced neurite outgrowth (hippocampal neurons; 3.6 μM Ig2-peptide dendrimer, Ig1 25 μM, α-FGFR 1:2000, CHD 200 μM, U-73122 5 μM (FIG. 23)): completely abrogated

Molecule: COC(=O)/C=C/c1cc(O)ccc1O [erbstatin analogue, reference compound]
- effect on the stimulatory effect of C3 on neurite extension [1]: inhibit the stimulatory effect of C3 on neurite extension

Molecule: COc1ccc(CCN(C)CCCC(C#N)(c2ccc(OC)c(OC)c2)C(C)C)cc1OC (stereo not shown) [verapamil, reference compound]
- effect on the stimulatory effect of C3 on neurite extension [1]: inhibit the stimulatory effect of C3 on neurite extension

Molecule: AKKERQRKDTQ (peptide fragment) [D3]
- binding to the NCAM Ig1 domain (NCAM Ig1 domain): bound the NCAM-Ig1 in solution; also recorded: bind to the NCAM Ig1 domain
- neurite outgrowth [1]: strongly stimulated neurite outgrowth; also recorded: increase in neurite outgrowth
- aggregation of cells (number of cell aggregates) (hippocampal cells): inhibited aggregation of cells; also recorded: higher number of cell aggregates

Molecule: ARALNWGAKPK (peptide fragment) [D4]
- binding to the NCAM Ig1 domain (NCAM Ig1 domain): bound the NCAM-Ig1 in solution; also recorded: bind to the NCAM Ig1 domain
- neurite outgrowth [1]: strongly stimulated neurite outgrowth; also recorded: increase in neurite outgrowth
- aggregation of cells (number of cell aggregates) (hippocampal cells): inhibited aggregation of cells; also recorded: higher number of cell aggregates

Molecule: ASKKPKRNIKA (peptide fragment) [C3]
- binding to the NCAM Ig1 domain (NCAM Ig1 domain): bound the NCAM-Ig1 in solution; also recorded: bind to the NCAM Ig1 domain
- concentration of maximal neuritogenic effect [1]: 0.54 µM
- branching of neurites ([1]; 0.54 μM): strongly stimulated
- number of neurites per cell ([1]; 0.54 μM): strongly stimulated
- length of the longest neurite ([1]; 0.54 μM, plastic (FIG. 11)): strongly stimulated
- neurite outgrowth [1]: strongly stimulated neurite outgrowth; also recorded: increase in neurite outgrowth
- NCAM-induced increase in neurite length on NCAM-140 expressing fibroblasts (LBN) [2]: no difference between the length of neurites on fibroblasts with or without NCAM expression
- neurite extension on fibroblasts without NCAM expression (LVN) [2]: neurite extension was stimulated
- proliferation ([3]; higher concentrations, bell-shaped dose-response curve): inhibited proliferation
- proliferation of neuroblastoma cells (neuroblastoma cells): promoted proliferation
- neurite outgrowth of PC12 cells (PC12 cells): increased neurite outgrowth
- proliferation of PC12 cells (PC12 cells): inhibitory effect on proliferation
- cell growth [4]: increase cell growth
- aggregation of cells (number of cell aggregates) (hippocampal cells): inhibited aggregation of cells; also recorded: higher number of cell aggregates

Molecule: C3d: Dendrimer of four C3 peptide monomers coupled to a backbone consisting of three lysines (ASKKPKRNIKA; also: dendrimer of four monomers coupled to a backbone of three lysines)
- NCAM-induced increase in neurite length on NCAM-140 expressing fibroblasts (LBN) [2]: inhibited
- neurite extension on fibroblasts without NCAM expression (LVN) [2]: stimulated neurite out-growth
- incorporation of BrdU (neuronal proliferation) ([3]; 0.8 μM): increased incorporation of BrdU
- aggregation of cells (number of cell aggregates) (hippocampal cells): most potent form
- number of aggregates of primary hippocampal neurones (hippocampal cells; 24 h in culture, 1.07 μM and 2.15 μM): increase in the number of aggregates formed

Molecule: D3-dendrimer: Four D3 peptide-monomers coupled to a backbone consisting of three lysines (AKKERQRKDTQ; also: dendrimer of four monomers coupled to a backbone of three lysines)
- aggregation of cells (number of cell aggregates) (hippocampal cells): increased the number of aggregates formed

Molecule: D4-dendrimer: Four D4 peptide-monomers coupled to a backbone consisting of three lysines (ARALNWGAKPK; also: dendrimer of four monomers coupled to a backbone of three lysines)
- aggregation of cells (number of cell aggregates) (hippocampal cells): increased the number of aggregates formed

Molecule: GEISVGESKFFL (peptide fragment) [Ig1-p]
- aggregation of cells (hippocampal cells; 24 h, 250 μg/ml (FIG. 24)): inhibited aggregation of cells
- neurite outgrowth (hippocampal neurons; 24 h, 5 μg/ml (FIG. 24)): promote neurite outgrowth

Molecule: GRILARGEINFK (peptide fragment) [Ig2-p]
- aggregation of cells (number of cell aggregates) (hippocampal cells): inhibited aggregation of cells
- neurite outgrowth (total neurite length per cell) (hippocampal neurons; 24 h): strongly stimulated neurite outgrowth

Molecule: GSILASGESNFK (peptide fragment) [P2-3S]
- inhibitory effect on aggregation of hippocampal cells (hippocampal cells; 24 h): no inhibitory effect
- neurite outgrowth (total neurite length per cell) (hippocampal neurons; 24 h): no neuritogenic effect; also recorded: no stimulatory effect

Molecule: GSILASGSSNFK [P2-4S]
- inhibitory effect on aggregation of hippocampal cells (hippocampal cells; 24 h): only a slight inhibitory effect
- neurite outgrowth (total neurite length per cell) (hippocampal neurons; 24 h): no neuritogenic effect; also recorded: no stimulatory effect

Molecule: omega-conotoxin GVIA [reference compound]
- effect on the stimulatory effect of C3 on neurite extension [1]: inhibit the stimulatory effect of C3 on neurite extension

Molecule: pertussis toxin [reference compound]
- effect on the stimulatory effect of C3 on neurite extension [1]: inhibit the stimulatory effect of C3 on neurite extension

B1: Ig1-2: Unmutated recombinant double Ig domain (Ig1-Ig2) of NCAM, NCAM (20-208) (protein)
chain: LQVDIVPSQGEISVGESKFFLCQVAGDAKDKDISWFSPNGEKLSPNQQRISVVWNDDDSSTLTIYNANIDDAGIYKCVVTAEDGTQSEATVNVKIFQKLMFKNAPTPQEFKEGEDAVIVCDVVSSLPPTIIWKHKGRDVILKKDVRFIVLSNNYLQIRGIKKTDEGTYRCEGRILARGEINFKDIQVIV
- dimer formation (elution in gel filtration) (NCAM (20-208)): elutes as a dimer
- neurite outgrowth (total neurite length per cell) (hippocampal neurons; 24 h): only slight, if any, effect

B2: mutated double domain: NCAM (20-208) double Ig domain with mutations R192A, R196A and E198A (protein)
chain: B1 chain with R173A, R177A, E179A
- neurite outgrowth (total neurite length per cell) (hippocampal neurons; 24 h): inhibited in a dose dependent manner
